Assay results from ChEMBL document CHEMBL3885861, “Open TG-GATES”.

Organism: Rattus norvegicus
Assay: Open TG-GATES - Regimen: Single
Assay type: toxicity, organism-based, Sprague-Dawley
Parameters: regimen Single, gender Male, age 6 weeks
Details: in vivo, po, 300 mg/kg, route gavage, dose level Middle; for APTT / Bas / Eos / Fbg / Hb / Ht / Lym / MCH / MCHC / MCV / Mono / Neu / PT / Plat / RBC / Ret / WBC: tissue Blood; for KIDNEY_L / KIDNEY_R / KIDNEY_TOTAL: tissue Kidney; for LIVER: tissue Liver; for A/G / ALP / ALT / AST / BUN / CRE / Ca / Cl / DBIL / GLC / IP / LDH / Na / PL / RALB / TBIL / TC / TG / TP / gamma-GTP: tissue Plasma

With `NC(N)=Nc1nc(CSCCC(N)=NS(N)(=O)=O)cs1` [FAMOTIDINE] the TERMINAL_BW (3 h) was 215.2 g, the APTT (3 h) was 21.3 s and the Bas (3 h) was 0%. It also gave an Eos (3 h) of 1%, a Fbg (3 h) of 213.2 mg/dL and a Hb (3 h) of 13.4 g/dL. It also gave a Ht (3 h) of 37.9%, a Lym (3 h) of 76.2% and an MCH (3 h) of 22.4 pg. It also gave an MCHC (3 h) of 35.3%, an MCV (3 h) of 63.4 fL and a Mono (3 h) of 2.8%. The Neu (3 h) was 17.8%, the PT (3 h) was 12.6 s and the Plat (3 h) was 116.7 x10_4/uL. The RBC (3 h) was 598 x10_4/ul, the Ret (3 h) was 7.6% and the WBC (3 h) was 82 x10_2/uL. For the same compound, the KIDNEY_L (3 h) was 1 g, the KIDNEY_R (3 h) was 1 g and the KIDNEY_TOTAL (3 h) was 1.9 g. It also gave an LIVER (3 h) of 10.1 g, an A/G (3 h) of 1.6 and an ALP (3 h) of 814.6 IU/L. For the same compound, the ALT (3 h) was 34.2 IU/L, the AST (3 h) was 66.4 IU/L and the BUN (3 h) was 9.6 mg/dL. It also gave a CRE (3 h) of 0.4 mg/dL, a Ca (3 h) of 10.6 mg/dL and a Cl (3 h) of 104.2 meq/L. The DBIL (3 h) was 0.07 mg/dL, the GLC (3 h) was 197.8 mg/dL and the IP (3 h) was 9 mg/dL. For the same compound, the LDH (3 h) was 230 IU/L, the Na (3 h) was 140.8 meq/L and the PL (3 h) was 146 mg/dL. The RALB (3 h) was 3.4 g/dL, the TBIL (3 h) was 0.1 mg/dL and the TC (3 h) was 77.2 mg/dL. The TG (3 h) was 69.4 mg/dL, the TP (3 h) was 5.5 g/dL and the gamma-GTP (3 h) was 1.2 IU/L. It also gave a TERMINAL_BW (6 h) of 211.7 g, an APTT (6 h) of 18.9 s and a Bas (6 h) of 0%. The Eos (6 h) was 1%, the Fbg (6 h) was 204.6 mg/dL and the Hb (6 h) was 13.5 g/dL. The Ht (6 h) was 37.8%, the Lym (6 h) was 75% and the MCH (6 h) was 22.3 pg. It also gave an MCHC (6 h) of 35.6%, an MCV (6 h) of 62.7 fL and a Mono (6 h) of 2.4%. The Neu (6 h) was 18.4%, the PT (6 h) was 12.8 s and the Plat (6 h) was 109.6 x10_4/uL. For the same compound, the RBC (6 h) was 604.4 x10_4/ul, the Ret (6 h) was 7.4% and the WBC (6 h) was 97.9 x10_2/uL. For the same compound, the KIDNEY_L (6 h) was 1 g, the KIDNEY_R (6 h) was 0.9 g and the KIDNEY_TOTAL (6 h) was 1.9 g. For the same compound, the LIVER (6 h) was 9 g, the A/G (6 h) was 1.6 and the ALP (6 h) was 896.8 IU/L. For the same compound, the ALT (6 h) was 32.8 IU/L, the AST (6 h) was 66.8 IU/L and the BUN (6 h) was 8.4 mg/dL. For the same compound, the CRE (6 h) was 0.4 mg/dL, the Ca (6 h) was 10.4 mg/dL and the Cl (6 h) was 103.8 meq/L. It also gave a DBIL (6 h) of 0.07 mg/dL, a GLC (6 h) of 195 mg/dL and an IP (6 h) of 9 mg/dL. The LDH (6 h) was 177.2 IU/L, the Na (6 h) was 140.8 meq/L and the PL (6 h) was 131.2 mg/dL. The RALB (6 h) was 3.2 g/dL, the TBIL (6 h) was 0.1 mg/dL and the TC (6 h) was 73.2 mg/dL. It also gave a TG (6 h) of 46.2 mg/dL, a TP (6 h) of 5.2 g/dL and a gamma-GTP (6 h) of 2 IU/L. The TERMINAL_BW (9 h) was 209.6 g, the APTT (9 h) was 18.9 s and the Bas (9 h) was 0%. For the same compound, the Eos (9 h) was 0.8%, the Fbg (9 h) was 225.4 mg/dL and the Hb (9 h) was 13.4 g/dL. The Ht (9 h) was 37.4%, the Lym (9 h) was 76.8% and the MCH (9 h) was 22.3 pg. The MCHC (9 h) was 35.7%, the MCV (9 h) was 62.3 fL and the Mono (9 h) was 2.4%. For the same compound, the Neu (9 h) was 19.2%, the PT (9 h) was 12.1 s and the Plat (9 h) was 117.6 x10_4/uL. For the same compound, the RBC (9 h) was 601.6 x10_4/ul, the Ret (9 h) was 7.2% and the WBC (9 h) was 77.6 x10_2/uL. It also gave a KIDNEY_L (9 h) of 0.9 g, a KIDNEY_R (9 h) of 1 g and a KIDNEY_TOTAL (9 h) of 1.9 g. For the same compound, the LIVER (9 h) was 8.7 g, the A/G (9 h) was 1.6 and the ALP (9 h) was 898 IU/L. The ALT (9 h) was 26.6 IU/L, the AST (9 h) was 59 IU/L and the BUN (9 h) was 10 mg/dL. For the same compound, the CRE (9 h) was 0.4 mg/dL, the Ca (9 h) was 10.3 mg/dL and the Cl (9 h) was 103.6 meq/L. For the same compound, the DBIL (9 h) was 0.064 mg/dL, the GLC (9 h) was 195.2 mg/dL and the IP (9 h) was 8.8 mg/dL. It also gave an LDH (9 h) of 125 IU/L, a Na (9 h) of 140.2 meq/L and a PL (9 h) of 130 mg/dL. For the same compound, the RALB (9 h) was 3.3 g/dL, the TBIL (9 h) was 0.1 mg/dL and the TC (9 h) was 67.8 mg/dL. It also gave a TG (9 h) of 47.6 mg/dL, a TP (9 h) of 5.4 g/dL and a gamma-GTP (9 h) of 0.6 IU/L. It also gave a TERMINAL_BW (24 h) of 227 g, an APTT (24 h) of 20.8 s and a Bas (24 h) of 0%. It also gave an Eos (24 h) of 1%, a Fbg (24 h) of 225.8 mg/dL and a Hb (24 h) of 13.4 g/dL. It also gave a Ht (24 h) of 37.6%, a Lym (24 h) of 78.2% and an MCH (24 h) of 22.4 pg. It also gave an MCHC (24 h) of 35.6%, an MCV (24 h) of 63.1 fL and a Mono (24 h) of 3.8%. It also gave a Neu (24 h) of 15.6%, a PT (24 h) of 12.1 s and a Plat (24 h) of 114.2 x10_4/uL. It also gave an RBC (24 h) of 596.2 x10_4/ul, a Ret (24 h) of 6.6% and a WBC (24 h) of 78.3 x10_2/uL. The KIDNEY_L (24 h) was 1 g, the KIDNEY_R (24 h) was 1 g and the KIDNEY_TOTAL (24 h) was 2 g. For the same compound, the LIVER (24 h) was 11 g, the A/G (24 h) was 1.5 and the ALP (24 h) was 1146.8 IU/L. It also gave an ALT (24 h) of 33.2 IU/L, an AST (24 h) of 62.8 IU/L and a BUN (24 h) of 13.2 mg/dL. It also gave a CRE (24 h) of 0.4 mg/dL, a Ca (24 h) of 10.5 mg/dL and a Cl (24 h) of 103.6 meq/L. For the same compound, the DBIL (24 h) was 0.074 mg/dL, the GLC (24 h) was 194.2 mg/dL and the IP (24 h) was 8 mg/dL. For the same compound, the LDH (24 h) was 176.6 IU/L, the Na (24 h) was 140.6 meq/L and the PL (24 h) was 153 mg/dL. It also gave an RALB (24 h) of 3.3 g/dL, a TBIL (24 h) of 0.1 mg/dL and a TC (24 h) of 82.8 mg/dL. It also gave a TG (24 h) of 86.8 mg/dL, a TP (24 h) of 5.6 g/dL and a gamma-GTP (24 h) of 0.8 IU/L.
